How the values were obtained:
Plasmodium falciparum [1] = test: Antimalarial activity against chloroquine-sensitive Plasmodium falciparum 3D7 assessed as parasite growth inhibition; format: functional, organism-based
Plasmodium falciparum [2] = test: Antimalarial activity against Plasmodium falciparum K1 infected in human erythrocytes assessed as parasite growth inhibition; format: functional, organism-based
Escherichia coli = test: Inhibition of Escherichia coli DXR assessed as reduction of NADPH in NADP+ at 100 nM by spectrophotometric analysis
[3] = Inhibition of Escherichia coli DXR assessed as reduction of NADPH in NADP+ by spectrophotometric analysis
Plasmodium falciparum [4] = test: Antimalarial activity against Plasmodium falciparum 3D7 assessed as parasite growth inhibition; format: functional, organism-based

SMILES	IC50 (Plasmodium falciparum [2]) [nM]	inhibition (Escherichia coli) [%]	IC50 ([3]; read-out: IC50) [nM]	other results
CC(=O)N(O)Cc1ccccc1P(OCOC(=O)C(C)(C)C)OCOC(=O)C(C)(C)C	–	–	–	IC50 (Plasmodium falciparum [1]): 50000 nM
CC(=O)N(O)CCC(NC(=O)c1ccccc1)P(=O)(O)O (racemic)	49000	1.42	–	–
CC(=O)N(O)CCC(N=[N+]=[N-])P(=O)(O)O (racemic)	1980	–	74.6	–
CC(=O)N(O)CCC(O)P(=O)(O)O (racemic)	1820	–	52.2	–
COC(CCN(O)C(C)=O)P(=O)(O)O (racemic)	4000	4.14	–	–
CC(=O)N(O)CCC(Oc1ccccc1)P(=O)(O)O (racemic)	13000	–	–	IC50 [3]: Not Active
CC(=O)N(O)CCC(n1ccnn1)P(=O)(O)O (racemic)	8960	3.32	–	–
CC(=O)N(O)CCC(n1cc(C(C)(C)C)nn1)P(=O)(O)O (racemic)	7760	–	207	–
CC(=O)N(O)CCC(n1cc(-c2ccccc2)nn1)P(=O)(O)O (racemic)	2750	–	1130	–
CC(=O)N(O)CCC(NC(=O)Nc1ccccc1)P(=O)(O)O (racemic)	> 64000	1.3	–	–
O=CN(O)CCCP(=O)(O)O [FOSMIDOMYCIN]	–	–	–	IC50 (Plasmodium falciparum [4]): 1000 nM
CC(=O)N(O)CCCP(=O)(O)O [FR-900098]	–	–	15.1	–
